The values below are quoted from earlier work in US7834031B2, “Radiolabeled glycine transporter inhibitors” (Merck Sharp & Dohme Corp., priority 2005, dated 2010).

Series [1] deals with symptoms of schizophrenia. The note with it: high doses, oral, add-on to standard neuroleptic therapy.
The subject of series [2] is symptoms of schizophrenia. The note with it: schizophrenia patients poorly responsive to antipsychotic drugs.
A further series concerns NMDA receptor activity. The note with it: rat.
For another series, the system named is pre-pulse inhibition. As to conditions: mice; measure of sensory gating.

As for `NCC(=O)O` [glycine], the “symptoms of schizophrenia patients” value in series [1] is “improvement of the symptoms”. Turning to `CNCC(=O)O` [sarcosine], in series [2], the “effect on positive, negative and cognitive symptoms” value is given as “beneficial effect”.

Turning to `CN(CCC(Oc1ccc(-c2ccccc2)cc1)c1ccc(F)cc1)CC(=O)O` (stereo not shown) [NFPS, (N-[3-(4′-fluorophenyl)-3-(4′-phenylphenoxy)propyl])sarcosine], in the series with NMDA receptor activity, the “NMDA receptor activity and NMDA receptor-dependent long-term potentiation” value is “potentiates NMDA receptor activity and NMDA receptor-dependent long-term potentiation”. For the same compound, the pre-pulse inhibition result with pre-pulse inhibition is listed as “enhance pre-pulse inhibition”.
